Results taken from patent publication US20060035897A1, “Trifluoromethyl substituted benzamides as kinase inhibitors” (priority 2004, published 2006).

Row | melting point [°C] | Compound
1 | 157 to 159 | Cc1ccc(C(=O)Nc2cccc(C(F)(F)F)c2)cc1-c1ccc2ccncc2c1 [Example 3, 3-Isoquinolin-7-yl-4-methyl-N-(3-trifluoromethyl-phenyl)-benzamide]
2 | 90 to 93 | Cc1ccc(NC(=O)c2cccc(C(F)(F)F)c2)cc1-c1ccc2scnc2c1 [Example 9, N-(3-Benzothiazol-5-yl-4-methyl-phenyl)-3-trifluoromethyl-benzamide]
3 | 200 to 202 | Cc1ccc(C(=O)Nc2cccc(C(F)(F)F)c2)cc1-c1ccc2scnc2c1 [Example 10, 3-Benzothiazol-5-yl-4-methyl-N-(3-trifluoromethylphenyl)benzamide]
4 | 270 to 272 | Cc1ccc(C(=O)Nc2cccc(C(F)(F)F)c2)cc1-c1ccc2cnncc2c1 [Example 8, 4-Methyl-3-phthalazin-6-yl-N-(3-trifluoromethyl-phenyl)-benzamide]
5 | 94 to 96 | Cc1ccc(NC(=O)c2cccc(C(F)(F)F)c2)cc1-c1ccc2ncsc2c1 [Example 5, N-(3-Benzothiazol-6-yl-4-methyl-phenyl)-3-trifluoromethyl-benzamide]
6 | 175 to 177 | Cc1ccc(NC(=O)c2ccc(CN3CCCCC3)c(C(F)(F)F)c2)cc1-c1ccc2cnncc2c1 [Example 17, N-(4-Methyl-3-phthalazin-6-yl-phenyl)-4-piperidin-1-ylmethyl-3-trifluoromethyl-benzamide]
7 | 236 to 238 | Cc1ccc(NC(=O)c2ccc(CN3CCOCC3)c(C(F)(F)F)c2)cc1-c1ccc2cnncc2c1 [Example 20, N-(4-Methyl-3-phthalazin-6-yl-phenyl)-4-morpholin-4-ylmethyl-3-trifluoromethyl-benzamide]
8 | 204 to 208 | Cc1ccc(NC(=O)c2ccc(CN3CCN(C)CC3)c(C(F)(F)F)c2)cc1-c1ccc2cnncc2c1 [Example 15, N-(4-Methyl-3-phthalazin-6-yl-phenyl)-4-(4-methyl-piperazin-1-ylmethyl)-3-trifluoromethyl-benzamide]
9 | 247 to 249 | Cc1ccc(C(=O)Nc2ccc(CN3CCCCC3)c(C(F)(F)F)c2)cc1-c1ccc2cnncc2c1 [Example 22, 4-Methyl-3-phthalazin-6-yl-N-(4-piperidin-1-ylmethyl-3-trifluoromethyl-phenyl)-benzamide]
10 | 102 to 104 | Cc1ccc(C(=O)Nc2cccc(C(F)(F)F)c2)cc1-c1ccc2ncsc2c1 [Example 6, 3-Benzothiazol-6-yl-4-methyl-N-(3-trifluoromethyl-phenyl)-benzamide]
11 | 284 to 287 | Cc1ccc(C(=O)Nc2ccc(CN3CCOCC3)c(C(F)(F)F)c2)cc1-c1ccc2cnncc2c1 [Example 23, 4-Methyl-N-(4-morpholin-4-ylmethyl-3-trifluoromethyl-phenyl)-3-phthalazin-6-yl-benzamide]
12 | 240 to 241 | Cc1ccc(NC(=O)c2ccc(CN(C)C)c(C(F)(F)F)c2)cc1-c1ccc2cnncc2c1 [Example 19, 4-Dimethylaminomethyl-N-(4-methyl-3-phthalazin-6-yl-phenyl)-3-trifluoromethyl-benzamide]
13 | 246 to 250 | Cc1ccc(C(=O)Nc2ccc(CN3CCCC3)c(C(F)(F)F)c2)cc1-c1ccc2cnncc2c1 [Example 25, 4-Methyl-3-phthalazin-6-yl-N-(4-pyrrolidin-1-ylmethyl-3-trifluoromethyl-phenyl)-benzamide]
14 | 205 to 206 | Cc1ccc(NC(=O)c2cccc(C(F)(F)F)c2)cc1-c1ccc2cnncc2c1 [Example 7, N-(4-Methyl-3-phthalazin-6-yl-phenyl)-3-trifluoromethyl-benzamide]
15 | 251 to 254 | Cc1ccc(C(=O)Nc2ccc(CN(C)C)c(C(F)(F)F)c2)cc1-c1ccc2cnncc2c1 [Example 24, N-(4-Dimethylaminomethyl-3-trifluoromethyl-Phenyl)-4-methyl-3-phthalazin-6-yl-benzamide]
16 | 148 to 152 | Cc1ccc(NC(=O)c2cccc(C(F)(F)F)c2)cc1-c1ccc2ccncc2c1 [Example 1, N-(3-Isoquinolin-7-yl-4-methyl-phenyl)-3-trifluoromethyl-benzamide]
